Measurements as given in ChEMBL document CHEMBL5506003, “Design and biological evaluation of dual tubulin/HDAC inhibitors based on millepachine for treatment of prostate cancer” (Eur J Med Chem, 2024).
Activity calls are given as the source filed them. The rule behind the calls is not given here.

What was measured:
PC-3 [1] = experiment: Cytotoxicity against human PC-3 cells incubated for 72 hrs by MTT assay; settings: PC-3, 72 h
MCF7 = experiment: Cytotoxicity against human MCF7 cells incubated for 72 hrs by MTT assay; settings: MCF7, 72 h
[2] = biological target: T1, Protein deacetylase HDAC6 (Homo sapiens, UniProt Q9UBN7); experiment: Inhibition of HDAC6 in human HeLa nuclear extracts incubated for 30 mins by fluorescence based assay; assay type: cell-free
T1 sequence (Q9UBN7 whole entry): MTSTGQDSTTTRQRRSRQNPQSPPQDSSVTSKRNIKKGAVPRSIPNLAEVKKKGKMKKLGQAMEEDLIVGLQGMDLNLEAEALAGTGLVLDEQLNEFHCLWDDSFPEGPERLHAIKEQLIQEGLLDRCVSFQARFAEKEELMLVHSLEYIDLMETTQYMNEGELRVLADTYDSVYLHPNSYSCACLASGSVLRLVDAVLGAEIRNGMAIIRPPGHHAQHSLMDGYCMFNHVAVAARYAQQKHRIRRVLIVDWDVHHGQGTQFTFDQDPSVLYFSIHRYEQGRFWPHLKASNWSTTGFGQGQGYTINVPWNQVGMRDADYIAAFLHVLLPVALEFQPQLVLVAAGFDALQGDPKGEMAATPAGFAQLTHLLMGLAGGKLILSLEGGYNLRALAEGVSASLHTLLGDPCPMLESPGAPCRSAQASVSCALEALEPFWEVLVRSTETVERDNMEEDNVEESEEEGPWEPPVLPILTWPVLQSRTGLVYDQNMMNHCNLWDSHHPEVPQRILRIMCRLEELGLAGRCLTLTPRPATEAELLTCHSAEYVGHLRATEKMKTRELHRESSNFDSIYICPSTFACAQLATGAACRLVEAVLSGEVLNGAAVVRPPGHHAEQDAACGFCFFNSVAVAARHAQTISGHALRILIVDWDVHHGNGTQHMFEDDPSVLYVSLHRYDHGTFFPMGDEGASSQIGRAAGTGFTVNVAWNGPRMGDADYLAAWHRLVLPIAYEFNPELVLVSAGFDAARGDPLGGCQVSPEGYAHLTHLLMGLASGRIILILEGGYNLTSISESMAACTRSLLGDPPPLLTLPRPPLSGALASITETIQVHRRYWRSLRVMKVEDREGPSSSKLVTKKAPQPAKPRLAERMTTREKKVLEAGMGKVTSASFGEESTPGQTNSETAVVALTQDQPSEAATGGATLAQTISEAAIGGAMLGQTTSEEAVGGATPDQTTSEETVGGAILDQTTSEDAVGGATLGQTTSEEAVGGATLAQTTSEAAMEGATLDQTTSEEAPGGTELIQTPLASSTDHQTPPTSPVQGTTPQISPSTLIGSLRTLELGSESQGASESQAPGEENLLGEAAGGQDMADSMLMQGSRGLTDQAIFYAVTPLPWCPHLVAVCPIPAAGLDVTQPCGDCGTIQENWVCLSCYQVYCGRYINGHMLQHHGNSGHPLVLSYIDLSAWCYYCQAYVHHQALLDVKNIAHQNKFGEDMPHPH

PC-3 [3] = experiment: Inhibition of colony formation in human PC-3 cells at 40 nM incubated for 24 hrs followed by replacement with fresh media and measured after 2 weeks by crystal violet staining based assay; assay type: functional
[4] = biological target: T2, Protein deacetylase HDAC6 (Homo sapiens) (UniProt Q9UBN7); experiment: Inhibition of HDAC6 in human PC-3 cells assessed as increase in acetylated alpha-tubulin level incubated for 24 hrs by Western blotting assay; assay type: cell-based; settings: dose 0.08-0.32 µM
T2 sequence (whole entry): T1 sequence (Q9UBN7 whole entry)

Histone deacetylase 1 = Histone deacetylase 1 (Homo sapiens, UniProt Q13547); experiment: Inhibition of HDAC1 in human PC-3 cells assessed as increase in acetylated Histone-H3 level incubated for 24 hrs by Western blotting assay; assay type: cell-based; settings: dose 0.08-0.32 µM
PC-3 [5] = experiment: Induction of cell cycle arrest in human PC-3 cells assessed as G1 phase cells at 0.08 uM incubated for 24 hrs by PI staining based flow cytometry analysis (reference value: 56.17%); assay type: functional
PC-3 [6] = experiment: Induction of cell cycle arrest in human PC-3 cells assessed as S phase cells at 0.16 uM incubated for 24 hrs by PI staining based flow cytometry analysis (reference value: 31.7%); assay type: functional
PC-3 [7] = experiment: Induction of cell cycle arrest in human PC-3 cells assessed as S phase cells at 0.32 uM incubated for 24 hrs by PI staining based flow cytometry analysis (reference value: 31.7%); assay type: functional
PC-3 [8] = experiment: Induction of cell cycle arrest in human PC-3 cells assessed as decrease in phosphorylated Cdc25c at Ser216 by Western blotting analysis; assay type: functional, cell-based; settings: dose 0.08-0.32 µM
PC-3 [9] = experiment: Induction of apoptosis in human PC-3 cells assessed as early apoptotic cells at 0.08 uM incubated for 24 hrs by Annexin V-FITC and PI staining based flow cytometry (reference value: 1.32%); assay type: functional
PC-3 [10] = experiment: Induction of apoptosis in human PC-3 cells assessed as late apoptotic cells at 0.16 uM incubated for 24 hrs by Annexin V-FITC and PI staining based flow cytometry (reference value: 1.02%); assay type: functional
PC-3 [11] = experiment: Induction of apoptosis in human PC-3 cells assessed as early apoptotic cells at 0.32 uM incubated for 24 hrs by Annexin V-FITC and PI staining based flow cytometry (reference value: 1.32%); assay type: functional
PC-3 [12] = experiment: Induction of apoptosis in human PC-3 cells assessed as upregulation of cleaved caspase-3 expression at 0.08 to 0.32 uM by Western blotting analysis; assay type: functional, cell-based; settings: dose 0.08-0.32 µM
PC-3 [13] = experiment: Induction of mitochondrial membrane potential loss in human PC-3 cells assessed as decrease in JC-1 aggregate level by measuring red fluorescence intensity at 0.32 uM incubated for 24 hrs by JC-1 staining based flow cytometry analysis (reference value: 93.5%); assay type: functional; design: scale not given: the % may be the effect or the level left
[14] = Toxicity in BALB/c nude mouse xenografted with human PC-3 cells assessed as liver damage at 10 to 20 mg/kg, iv administered every 2 days and measured after 3 weeks; assay type: organism-based; settings: in vivo, 504 h, dose 10-20 mg/kg
[15] = Toxicity in BALB/c nude mouse xenografted with human PC-3 cells assessed as lung damage at 10 to 20 mg/kg, iv administered every 2 days and measured after 3 weeks; assay type: organism-based; settings: in vivo, 504 h, dose 10-20 mg/kg
[16] = Half-life in Sprague-Dawley rat at 2 mg/kg, iv measured upto 24 hrs by HPLC-MS analysis; assay type: ADME, organism-based; settings: in vivo

Sequence of Histone deacetylase 1 (Q13547 whole entry): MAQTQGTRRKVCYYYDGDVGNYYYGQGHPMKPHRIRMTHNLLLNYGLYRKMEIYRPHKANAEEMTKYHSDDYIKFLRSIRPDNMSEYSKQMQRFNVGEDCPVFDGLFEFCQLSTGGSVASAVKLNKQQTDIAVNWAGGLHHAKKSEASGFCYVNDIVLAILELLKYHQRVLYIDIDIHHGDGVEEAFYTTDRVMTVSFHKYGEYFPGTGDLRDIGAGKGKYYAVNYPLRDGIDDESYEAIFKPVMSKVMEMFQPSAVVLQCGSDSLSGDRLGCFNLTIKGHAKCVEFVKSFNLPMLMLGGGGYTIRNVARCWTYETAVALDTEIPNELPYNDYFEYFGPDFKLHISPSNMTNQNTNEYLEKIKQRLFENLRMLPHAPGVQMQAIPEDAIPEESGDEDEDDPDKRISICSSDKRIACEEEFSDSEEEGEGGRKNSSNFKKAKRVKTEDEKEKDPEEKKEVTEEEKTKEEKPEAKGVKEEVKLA

IC50 [2]: 0.62 µM
inhibition [4]: Dose-Dependent Effect
inhibition (Histone deacetylase 1): Dose-Dependent Effect
half-life [16]: 54.6 min
Structure (SMILES): COc1ccc(/C=C/C(=O)c2ccc(OC)c3c2OC(C)(C)C=C3)cc1NCC(=O)NO
IC50 (PC-3 [1]): 0.016 µM
IC50 (MCF7): 0.16 µM
inhibition at 0.04 µM (PC-3 [3]): 100%
Activity (PC-3 [5]): 34.64%
Activity (PC-3 [6]): 28.7%
Activity (PC-3 [7]): 10.6%
Activity (PC-3 [8]): Active
Activity (PC-3 [9]): 2.52%
Activity (PC-3 [10]): 5.28%
Activity (PC-3 [11]): 63.8%
Activity (PC-3 [12]): Active
Activity (PC-3 [13]): 58.9%
Activity [14]: Non-Toxic
Activity [15]: Non-Toxic
